Measurements reported in the supplement of paper PMC13380429.

Assays:
Details in all cases: 72 h
[1] = system: U2OS; experiment: drug sensitivity score (DSS) for viability; higher = more toxic; extreme values may be limits of the assay
[2] = system: Caco-2; experiment: as above
[3] = system: HepG2; experiment: as above
[4] = system: Vero E6; experiment: as above
[5] = system: U2OS; experiment: cell viability relative to DMSO; higher = less toxic
[6] = system: Caco-2; experiment: as above
[7] = system: HepG2; experiment: as above
[8] = system: Vero E6; experiment: as above
[9] = system: U2OS; experiment: relative viability EC50 (midpoint between 100% and the lowest measured viability); higher = less toxic
[10] = system: Caco-2; experiment: as above
[11] = system: HepG2; experiment: as above
[12] = system: Vero E6; experiment: as above
[13] = system: Calu-3; experiment: drug sensitivity score (DSS) for viability; higher = more toxic; extreme values may be limits of the assay
[14] = system: Calu-3; experiment: cell viability relative to DMSO; higher = less toxic
[15] = system: Calu-3; experiment: relative viability EC50 (midpoint between 100% and the lowest measured viability); higher = less toxic

SMILES | drug sensitivity score [1] | drug sensitivity score [2] | drug sensitivity score [3] | drug sensitivity score [4] | cell viability ([5]; 1 nM) | cell viability ([5]; 10 nM) | cell viability ([5]; 100 nM) | cell viability ([5]; 1000 nM) | cell viability ([5]; 10000 nM) | cell viability ([6]; 1 nM) | cell viability ([6]; 10 nM) | cell viability ([6]; 100 nM) | cell viability ([6]; 1000 nM) | cell viability ([6]; 10000 nM) | cell viability ([7]; 1 nM) | cell viability ([7]; 10 nM) | cell viability ([7]; 100 nM) | cell viability ([7]; 1000 nM) | cell viability ([7]; 10000 nM) | cell viability ([8]; 1 nM) | cell viability ([8]; 10 nM) | cell viability ([8]; 100 nM) | cell viability ([8]; 1000 nM) | cell viability ([8]; 10000 nM) | relative viability EC50 [9] | relative viability EC50 [10] | relative viability EC50 [11] | relative viability EC50 [12] | drug sensitivity score [13] | cell viability ([14]; 1 nM) | cell viability ([14]; 10 nM) | cell viability ([14]; 100 nM) | cell viability ([14]; 1000 nM) | cell viability ([14]; 10000 nM) | relative viability EC50 [15]
Cn1c(COP(=O)(NCCBr)NCCBr)cnc1[N+](=O)[O-] [TH-302] | 0 | 0 | 0.4 | 0 | 103% | 105% | 99.9% | 105% | 108% | 107% | 94.5% | 98.6% | 97.7% | 89% | 97.6% | 97% | 118% | 103% | 81.3% | 101% | 100% | 98.8% | 93.1% | 97.5% | > 10 µM | > 10 µM | > 10 µM | > 10 µM | – | – | – | – | – | – | –
COC(=O)Nc1ccc(-c2nc(N3CCOCC3)c3cnn(C4CCN(C(=O)OC)CC4)c3n2)cc1 [WYE-354] | 0.4 | 5 | 2.8 | 2.2 | 99.3% | 98.3% | 104% | 98.6% | 84.8% | 98.3% | 99.3% | 97.3% | 83.1% | 48.3% | 104% | 107% | 94.8% | 102% | 44.8% | 97.4% | 99.7% | 91.8% | 96.4% | 64.8% | > 10 µM | 1.38 µM | 3.34 µM | – | 3.8 | 93.6% | 91.4% | 95.8% | 92.2% | 52.2% | –
CC1=C(C(=O)OC(C)C)C(c2cccc([N+](=O)[O-])c2)C(C(=O)OC2CN(C(c3ccccc3)c3ccccc3)C2)=C(N)N1 (centres undefined) [azelnidipine] | 0 | 0 | – | 0 | 101% | 97.5% | 98.3% | 98.1% | 90.4% | 89% | 94.8% | 100% | 87.1% | 87.6% | – | – | – | – | – | 91.4% | 97.5% | 92.1% | 96.2% | 88.1% | > 10 µM | > 10 µM | – | > 10 µM | 0 | 92.8% | 106% | 101% | 96.8% | 109% | > 10 µM
CCN(CCO)CCCOc1ccc2c(Nc3cc(CC(=O)Nc4cccc(F)c4)[nH]n3)ncnc2c1 [barasertib-HQPA] | 0 | 0.6 | 6.9 | 0 | 94.4% | 95.8% | 93.7% | 91.7% | 87% | 93% | 100% | 78.4% | 91.6% | 88.4% | 99.5% | 99.7% | 77.8% | 72.8% | 78.8% | 93.8% | 96% | 98.2% | 91% | 88.2% | > 10 µM | > 10 µM | – | > 10 µM | 0 | 95.1% | 93% | 97.2% | 92.6% | 94.2% | > 10 µM
O=c1[nH]c(=O)n([C@H]2C[C@H](O)[C@@H](CO)O2)cc1Br [broxuridine] | 0 | 0 | 2.3 | 1 | 100% | 98% | 100% | 96.4% | 97.5% | 96% | 85.3% | 91.6% | 94.4% | 106% | 97% | 97.1% | 98.1% | 95.3% | 66.7% | 110% | 107% | 99% | 97.8% | 79% | > 10 µM | > 10 µM | – | > 10 µM | 0 | 94.2% | 86.5% | 102% | 95.9% | 101% | > 10 µM
CCCCc1nc(Cl)c(C(=O)O)n1Cc1ccc(-c2ccccc2-c2nn[nH]n2)cc1 [carboxylosartan] | 0 | 0 | 0 | 0 | 103% | 102% | 101% | 98.7% | 102% | 96.6% | 98.8% | 95.5% | 100% | 96.9% | 99.6% | 102% | 94.5% | 113% | 95.7% | 103% | 109% | 98.3% | 104% | 96.5% | > 10 µM | > 10 µM | > 10 µM | > 10 µM | – | – | – | – | – | – | –
CCCCCCOC(=O)NC(=N)c1ccc(NCc2nc3cc(C(=O)N(CCC(=O)OCC)c4ccccn4)ccc3n2C)cc1 [dabigatran-etexilate] | 0 | 1.5 | 0.7 | 0 | 97.7% | 92.9% | 101% | 95.9% | 96.9% | 96.5% | 88.5% | 104% | 93.8% | 78.1% | 91.6% | 106% | 88.9% | 116% | 72.7% | 97.8% | 103% | 99.4% | 102% | 108% | > 10 µM | > 10 µM | – | > 10 µM | 0.1 | 101% | 82.3% | 109% | 103% | 84.3% | > 10 µM
Cc1cc(N)c2ccccc2[n+]1CCCCCCCCCC[n+]1c(C)cc(N)c2ccccc21 [dequalinium] | 1.8 | 4.8 | 6.4 | 0 | 104% | 102% | 96.2% | 102% | 60.1% | 96.9% | 94.4% | 98.9% | 92.2% | 36.4% | 98.6% | 100% | 92.7% | 76.2% | 33.8% | 101% | 104% | 104% | 102% | 87.4% | – | 2.16 µM | 1.38 µM | > 10 µM | 0.8 | 101% | 92.7% | 104% | 107% | 73.5% | –
CCCCc1ncc(/C=C(\Cc2cccs2)C(=O)O)n1Cc1ccc(C(=O)O)cc1 [eprosartan] | 0 | 0 | – | 0 | 100% | 101% | 99.3% | 102% | 95.9% | 98.1% | 106% | 105% | 110% | 103% | – | – | – | – | – | 104% | 97.7% | 100% | 97.1% | 101% | > 10 µM | > 10 µM | – | > 10 µM | 0 | 93.8% | 94.9% | 101% | 106% | 109% | > 10 µM
O=C(CCCN1CCC(O)(c2ccc(Cl)cc2)CC1)c1ccc(F)cc1 [haloperidol] | 0 | 0 | – | 0 | 102% | 104% | 97.6% | 103% | 99.1% | 110% | 104% | 97.1% | 100% | 103% | – | – | – | – | – | 101% | 97.3% | 95.1% | 98.9% | 94.1% | > 10 µM | > 10 µM | – | > 10 µM | 0 | 99.5% | 97.9% | 92.6% | 104% | 114% | > 10 µM
C[C@]1(O)C[C@@H](c2nc(-c3ccc4ccc(-c5ccccc5)nc4c3)c3c(N)nccn32)C1 [linsitinib] | 3.3 | 6.3 | 7.5 | 0 | 101% | 103% | 92.7% | 82.4% | 67.9% | 96.6% | 98.9% | 84.7% | 75.7% | 47.2% | 90.5% | 87% | 95.2% | 62% | 54.8% | 99.9% | 98.9% | 104% | 96.5% | 109% | – | 0.674 µM | – | > 10 µM | 0 | 97.7% | 104% | 101% | 116% | 104% | > 10 µM
CCOC(=O)O[C@]1(C(=O)OCCl)CC[C@H]2[C@@H]3CCC4=CC(=O)C=C[C@]4(C)[C@H]3[C@@H](O)C[C@@]21C [loteprednol] | 0 | 1.6 | – | 0 | 105% | 102% | 100% | 93.4% | 98.1% | 112% | 104% | 99.1% | 92.1% | 77.9% | – | – | – | – | – | 102% | 100% | 102% | 99.2% | 96% | > 10 µM | > 10 µM | – | > 10 µM | 0.6 | 98.8% | 100% | 103% | 87.7% | 95.2% | > 10 µM
